Assay: Displacement of [3H]DTG from sigma opioid receptor of homogenized guinea pig whole brain
In the case of COc1ccc(N=C(N)NC23CC4CC(CC(C4)C2)C3)c(C)c1, the IC50 is reported as 7 nM.
For COc1ccccc1N=C(N)NC12CC3CC(CC(C3)C1)C2, the IC50 was 17 nM.
With Cc1cc(F)ccc1N=C(N)NC12CC3CC(CC(C3)C1)C2 the IC50 was 3.2 nM.
Molecule NC(=NC12CC3CC(CC(C3)C1)C2)Nc1cccc(I)c1 has an IC50 of 8 nM.
Molecule COc1cccc(NC(N)=NC23CC4CC(CC(C4)C2)C3)c1 has an IC50 of 7 nM.
For NC(=Nc1ccccc1I)NC12CC3CC(CC(C3)C1)C2, the IC50 was 6.2 nM.
In the case of COc1ccc(NC(N)=NC23CC4CC(CC(C4)C2)C3)cc1, the IC50 is reported as 10 nM.

— BindingDB's records for doi:10.1021/jm00110a017 (Institutions, 1991)
